Experimental findings from US9901525B2, “External use skin composition, containing Lentinula edodes-derived ergosterol” (Amorepacific Corporation, priority 2013, dated 2018) are described below.

In data set [1] the test system is Melan-a cell. Briefly: Melanin analysis of melan-a cell (melanin content). The data set is classed as cell-based, mouse. Particulars: melan-a cells (FIG. 3); for effect inhibiting the melanin production: 10 μM, corresponds to 4.44 ppm; for effect of inhibiting melanin production: 0.1, 1, 10 μM, 6 days; for skin whitening effect compared with positive controls (50 ppm arbutin, 50 ppm kojic acid): much less amount than the controls. As to the method: (§1) Melanin-forming cell (melanocyte) derived from C57BL/6J mouse, melan-a cell was cultured by using RPMI-1640 medium (Lonza, USA) with 10% FBS (Fetal Bovine Serum; bovine fetal serum) and 50 U/ml penicillin, 50 μg/ml streptomycin under the condition of 37° C., 10% CO2 and then used in the following experiment.
The Melan-a cell cultured by the method of the Reference Example 2 was seeded on 48 well plate so as to be 1.5×10^4 of the cell number per well and then, cultured for 24 hours. Then, a new medium containing various concentrations (0.1, 1, 10 μM) of 3β, 5α-dihydroxy-6β-methoxy-(22E, 24R)-ergosta-7,22-diene or 3β, 5α, 9α-trihydroxy-(22E, 24R)-ergosta-7,22-diene-6-one isolated from the Reference Example 1 was treated. At this time, in order to compare it, a medium containing 50 ppm of arbutin or 50 ppm of kojic acid was used as a positive control. The medium was treated for 6 days, and after three days, a new medium was exchanged. After 6 days, the cell was washed with DPBS and then, was added with 2N NaOH (10% DMSO) and dissolved at 60° C. for 1 hour. The cell lysate dissolved was moved into 96 well plates and then its absorbance (OD 475) was measured. The measured value was calculated as melanin content from the standard curve for the synthesized melanin, and the melanin content calculated was standardized by the total amount of the protein of each experimental group, and then it was compared with the control to estimate the efficiency. The results are represented in FIG. 3.
In addition, in order to compare the whitening effect of 3β, 5α-dihydroxy-6β-methoxy-(22E, 24R)-ergosta-7,22-diene and 3β, 5α, 9α-trihydroxy-(22E, 24R)-ergosta-7,22-diene-6-one with that of Lentinula edodes extract, the separate melan-a cell melanin assay experiment was performed with the same method as the above. At this time, 50 ppm of arbutin or 12.5, 25, 50, 100 ppm of ethanol extracts of Lentinula edodes obtained from the Reference Example 1 were used, and used by containing them in the medium for the cell culture. The results were represented in FIG. 4.

Data set [2] relates to Melan-a cell. The data set can be described thus: Cytotoxic test (MTT assay), survival rate of cells. The data set is classed as cell-based, mouse. The conditions noted are these: 50 ppm, melan-a cells (FIG. 2). As to the method: as §1
Melan-a cell cultured by the method of the Reference Example 2 was seeded on 96 well plates so as to be 1.0×10^4 of cell number and then, cultured for 24 hours. […] Absorbance (OD 570) was determined by using microplate reader (Product Name: Synergy 2 (BioTek)), and a survival rate of the cell was determined by comparing it with the control. […]
The method similar to the Experimental Example 1 was used, except that 50 ppm arbutin, Lentinula edodes extracts (12.5, 25, 50, 100 ppm) were used as the sample treated. Absorbance (OD 570) was measured by using microplate reader (Product Name: Synergy 2 (BioTek)), and a survival rate of the cell was determined by comparing it with the control. […]
(Tetrazolium dyes change colour on reduction, which living cells bring about.)

As for `CC(C)[C@@H](C)/C=C/[C@@H](C)[C@H]1CC[C@H]2C3=CC(=O)[C@@]4(O)C[C@@H](O)CC[C@]4(C)[C@@]3(O)CC[C@]12C` [3β, 5α, 9α-trihydroxy-(22E, 24R)-ergosta-7,22-diene-6-one], in the data set on Melan-a cell [1], the “effect inhibiting the melanin production” value was “remarkable effect inhibiting the melanin production”; the “effect of inhibiting melanin production” value is “exhibits the effect of inhibiting a melanin production”; the “skin whitening effect compared with positive controls (50 ppm arbutin, 50 ppm kojic acid)” value was “remarkably excellent skin whitening effect than albumin and kojic acid”.

As to `CO[C@@H]1C=C2[C@@H]3CC[C@H]([C@H](C)/C=C/[C@H](C)C(C)C)[C@@]3(C)CC[C@@H]2[C@@]2(C)CC[C@H](O)C[C@]12O` [3β, 5α-dihydroxy-6β-methoxy-(22E, 24R)-ergosta-7,22-diene], in the data set on Melan-a cell [1], the “effect inhibiting the melanin production” value was “remarkable effect inhibiting the melanin production”; the “effect of inhibiting melanin production” value is reported as “exhibits the effect of inhibiting a melanin production”; the “skin whitening effect compared with positive controls (50 ppm arbutin, 50 ppm kojic acid)” value is “remarkably excellent skin whitening effect than albumin and kojic acid”.

Consider `OC[C@H]1O[C@@H](Oc2ccc(O)cc2)[C@H](O)[C@@H](O)[C@@H]1O` [arbutin], for which the “effect on the cell growth (survival rate, MTT)” value in the data set on Melan-a cell [2] is recorded as “did not affect the cell growth”.
